In data set [1] the test system is Myzus persicae. Kind of data set: Insecticidal activity against Myzus persicae (green peach aphid) assessed as insect mortality at 0.78 ppm. In kind it is functional.
In data set [2] the test system is Myzus persicae. Kind of data set: Insecticidal activity against Myzus persicae (green peach aphid) assessed as insect mortality at 3.13 ppm. Format: functional.
In data set [3] the test system is Myzus persicae. Kind of data set: Insecticidal activity against Myzus persicae (green peach aphid) assessed as insect mortality at 12.5 ppm. Format: functional.
The subject of data set [4] is Myzus persicae. As to the kind of experiment: Insecticidal activity against Myzus persicae (green peach aphid) assessed as insect mortality at 50 ppm. In kind it is functional.
The nature of data set [5]: Acute toxicity in Mus musculus (mouse). As to conditions: in vivo. Format: organism-based.
Data set [6] has as its system Plutella xylostella. Kind of data set: Insecticidal activity against Plutella xylostella (diamondback moth) assessed as insect mortality at 12.5 ppm. Format: functional.
Data set [7] deals with Plutella xylostella. As to the kind of experiment: Insecticidal activity against Plutella xylostella (diamondback moth) assessed as insect mortality at 50 ppm. Format: functional.
Data set [8] concerns Plutella xylostella. Kind of data set: Insecticidal activity against Plutella xylostella (diamondback moth) assessed as insect mortality at 0.78 ppm. Format: functional.
In data set [9] the test system is Plutella xylostella. Kind of data set: Insecticidal activity against Plutella xylostella (diamondback moth) assessed as insect mortality at 3.13 ppm. In kind it is functional.

Each structure is given as a SMILES string.

As to `Cc1ccc(Oc2ccc(CNC(=O)c3c(Cl)c(C(C)(C)C)nn3C)cc2)cc1`, in the data set with Myzus persicae [1], the mortality (commonly the percentage killed) at 0.78 ppm was determined as 0%. Further, the mortality at 3.13 ppm in the data set on Myzus persicae [2] is 0%. Also, the mortality at 12.5 ppm with Myzus persicae [3] was 0%. Further, the mortality at 50 ppm in the data set on Myzus persicae [4] was 30%.

`CCc1nn(C)c(C(=O)NCc2cccc(Oc3ccccc3C)c2)c1Cl`: the mortality at 0.78 ppm in the data set with Myzus persicae [1] was 0%. In addition, the mortality at 3.13 ppm with Myzus persicae [2] was determined as 0%. For the same compound, the mortality at 12.5 ppm in the data set with Myzus persicae [3] turned out to be 30%. Further, the mortality at 50 ppm in the data set with Myzus persicae [4] is 30%.

As to `CCc1nn(C)c(C(=O)NCc2ccc(Oc3ccc(C)cc3)cc2)c1OC`, the mortality at 0.78 ppm with Myzus persicae [1] came to 0%. Also, the mortality at 3.13 ppm in the data set with Myzus persicae [2] was determined as 100%. The mortality at 12.5 ppm in the data set on Myzus persicae [3] amounted to 100%. The mortality at 50 ppm with Myzus persicae [4] worked out at 100%.

Take `CCc1nn(C)c(C(=O)NCc2ccc(Oc3ccc(C)cc3)cc2)c1Br`: the mortality at 0.78 ppm in the data set with Myzus persicae [1] was found to be 0%. The mortality at 3.13 ppm in the data set with Myzus persicae [2] worked out at 0%. Moreover, the mortality at 12.5 ppm in the data set on Myzus persicae [3] stood at 30%. In the data set with Myzus persicae [4], the mortality at 50 ppm came to 80%.

Consider `CCC1CCc2c1nn(C)c2C(=O)NCc1ccc(Oc2ccc(C)cc2)cc1` (configuration not stated), for which the mortality at 0.78 ppm in the data set with Myzus persicae [1] was 0%. The mortality at 3.13 ppm with Myzus persicae [2] is 0%. For the same compound, in the data set with Myzus persicae [3], the mortality at 12.5 ppm worked out at 30%. Further, the mortality at 50 ppm in the data set with Myzus persicae [4] was determined as 80%.

Consider `Cc1ccc(Oc2ccc(CNC(=O)c3c(Cl)c(C(C)C)nn3C)cc2)cc1`, for which, in the data set on Myzus persicae [1], the mortality at 0.78 ppm stood at 0%. Further, in the data set with Myzus persicae [2], the mortality at 3.13 ppm turned out to be 0%. Further, the mortality at 12.5 ppm in the data set with Myzus persicae [3] is 30%. The mortality at 50 ppm in the data set with Myzus persicae [4] was 100%.

Consider `CCc1nn(C)c(C(=O)NCc2ccccc2Oc2ccc(C)cc2)c1Cl`, for which the mortality at 0.78 ppm in the data set on Myzus persicae [1] was 0%. In addition, in the data set with Myzus persicae [2], the mortality at 3.13 ppm amounted to 0%. Further, the mortality at 12.5 ppm with Myzus persicae [3] came to 0%. Moreover, the mortality at 50 ppm in the data set with Myzus persicae [4] turned out to be 0%.

For the compound `Cc1ccc(Oc2ccc(CNC(=O)c3c4ccccc4nn3C)cc2)cc1`, the mortality at 0.78 ppm in the data set with Myzus persicae [1] is 0%. Besides, the mortality at 3.13 ppm with Myzus persicae [2] stood at 0%. Besides, the mortality at 12.5 ppm with Myzus persicae [3] is 0%. In addition, the mortality at 50 ppm with Myzus persicae [4] was determined as 0%.

For the compound `Cc1ccc(Oc2ccc(CNC(=O)c3c(Cl)c(C(F)(F)F)nn3C)cc2)cc1`, the mortality at 0.78 ppm in the data set on Myzus persicae [1] amounted to 0%. The mortality at 3.13 ppm with Myzus persicae [2] came to 0%. Also, the mortality at 12.5 ppm in the data set on Myzus persicae [3] was found to be 0%. The mortality at 50 ppm with Myzus persicae [4] was 0%.

`Cc1ccc(Oc2ccc(CNC(=O)c3c4c(nn3C)CCC4)cc2)cc1`: the mortality at 0.78 ppm in the data set on Myzus persicae [1] was 0%. The mortality at 3.13 ppm with Myzus persicae [2] was 0%. Further, in the data set with Myzus persicae [3], the mortality at 12.5 ppm worked out at 30%. The mortality at 50 ppm with Myzus persicae [4] was determined as 100%.

As to `CCc1nn(C)c(C(=O)NCc2ccccc2Oc2cccc(C)c2)c1Cl`, the mortality at 0.78 ppm in the data set on Myzus persicae [1] was 0%. The mortality at 3.13 ppm in the data set with Myzus persicae [2] stood at 0%. Further, the mortality at 12.5 ppm with Myzus persicae [3] came out at 0%. For the same compound, the mortality at 50 ppm in the data set on Myzus persicae [4] is 0%.

For the compound `CCc1cc(C(=O)NCc2ccc(Oc3ccc(C)cc3)cc2)n(C)n1`, the mortality at 0.78 ppm in the data set on Myzus persicae [1] was determined as 0%. The mortality at 3.13 ppm in the data set on Myzus persicae [2] amounted to 0%. Moreover, the mortality at 12.5 ppm with Myzus persicae [3] turned out to be 0%. For the same compound, the mortality at 50 ppm with Myzus persicae [4] turned out to be 30%.

Take `CC1CCc2c1nn(C)c2C(=O)NCc1ccc(Oc2ccc(C(F)(F)F)cc2)cc1` (configuration not stated): the LD50 (usually the dose expected to kill half of the subjects tested) in data set [5] was less than 30 mg/kg.

Turning to `CCc1nn(C)c(C(=O)NCc2cccc(Oc3cccc(C)c3)c2)c1Cl`, the mortality at 0.78 ppm in the data set with Myzus persicae [1] came to 0%. Also, in the data set on Myzus persicae [2], the mortality at 3.13 ppm came out at 0%. Also, the mortality at 12.5 ppm with Myzus persicae [3] is 30%. Besides, the mortality at 50 ppm in the data set with Myzus persicae [4] came to 80%.

Regarding `CCc1nn(C)c(C(=O)NCc2ccccc2Oc2ccccc2C)c1Cl`, the mortality at 0.78 ppm in the data set with Myzus persicae [1] was 0%. For the same compound, the mortality at 3.13 ppm with Myzus persicae [2] is 0%. Moreover, the mortality at 12.5 ppm in the data set with Myzus persicae [3] was 0%. In addition, the mortality at 50 ppm in the data set with Myzus persicae [4] was 0%.

In the case of `Cc1ccc(Oc2ccc(CNC(=O)c3c4c(nn3C)C(C)CC4)cc2)cc1` (configuration not stated), in the data set with Myzus persicae [1], the mortality at 0.78 ppm came out at 0%. Moreover, the mortality at 3.13 ppm with Myzus persicae [2] came to 0%. Also, the mortality at 12.5 ppm in the data set with Myzus persicae [3] stood at 80%. The mortality at 50 ppm in the data set with Myzus persicae [4] came to 100%.

With `CCc1nn(C)c(C(=O)NCc2ccc(Cc3ccc(C)cc3)cc2)c1Cl`, the mortality at 12.5 ppm with Plutella xylostella [6] and in the data set on Myzus persicae [3] was 0% each time. The mortality at 50 ppm in the data set on Plutella xylostella [7] was 80%; with Myzus persicae [4], 0%. The mortality at 0.78 ppm with Myzus persicae [1] and in the data set on Plutella xylostella [8] was 0% each time. Also, the mortality at 3.13 ppm in the data set on Myzus persicae [2] and with Plutella xylostella [9] was 0% in each case.

In the case of `CCc1nn(C)c(C(=O)NCc2cccc(Oc3ccc(C)cc3)c2)c1Cl`, the mortality at 0.78 ppm in the data set with Myzus persicae [1] is 0%. For the same compound, the mortality at 3.13 ppm with Myzus persicae [2] came to 30%. For the same compound, the mortality at 12.5 ppm with Myzus persicae [3] amounted to 80%. The mortality at 50 ppm in the data set on Myzus persicae [4] was determined as 80%.

Take `CCc1nn(C)c(C(=O)NCc2ccc(Sc3ccc(C)cc3)cc2)c1Cl`: the figures for the mortality at 12.5 ppm in the data set with Plutella xylostella [6] and with Myzus persicae [3] were 30% and 100%, respectively. Also, the mortality at 50 ppm in the data set on Plutella xylostella [7] was found to be 30%; in the data set with Myzus persicae [4], 100%. In addition, the mortality at 0.78 ppm was found to be 30% in the data set on Myzus persicae [1] and 0% in the data set on Plutella xylostella [8]. The mortality at 3.13 ppm in the data set with Myzus persicae [2] and with Plutella xylostella [9] was 0% in each case.

Consider `CCc1nn(C)c(C(=O)NCc2ccc(Oc3ccccc3C)cc2)c1Cl`, for which the mortality at 0.78 ppm with Myzus persicae [1] came out at 0%. For the same compound, the mortality at 3.13 ppm in the data set on Myzus persicae [2] stood at 0%. Further, in the data set on Myzus persicae [3], the mortality at 12.5 ppm came out at 100%. Also, the mortality at 50 ppm with Myzus persicae [4] came out at 100%.

As to `Cc1ccc(Oc2ccc(CNC(=O)c3c(Cl)c(C)nn3C)cc2)cc1`, the mortality at 0.78 ppm with Myzus persicae [1] turned out to be 0%. Moreover, the mortality at 3.13 ppm in the data set with Myzus persicae [2] is 0%. The mortality at 12.5 ppm in the data set on Myzus persicae [3] is 100%. In the data set on Myzus persicae [4], the mortality at 50 ppm stood at 100%.

As to `CCc1nn(C)c(C(=O)NCc2ccc(Oc3cccc(C)c3)cc2)c1Cl`, the mortality at 0.78 ppm in the data set on Myzus persicae [1] was 0%. Moreover, the mortality at 3.13 ppm in the data set with Myzus persicae [2] was found to be 80%. Also, the mortality at 12.5 ppm with Myzus persicae [3] came out at 100%. Also, in the data set on Myzus persicae [4], the mortality at 50 ppm amounted to 100%.

`CCc1nn(C)c(C(=O)NCc2ccc(COc3ccc(C)cc3)cc2)c1Cl`: the mortality at 12.5 ppm in the data set on Plutella xylostella [6] and with Myzus persicae [3] was 0% each time. Moreover, the mortality at 50 ppm in the data set with Plutella xylostella [7] and in the data set on Myzus persicae [4] was 0% in each case. Besides, the mortality at 0.78 ppm in the data set with Myzus persicae [1] and with Plutella xylostella [8] was 0% each time. Further, the mortality at 3.13 ppm in the data set on Myzus persicae [2] and in the data set with Plutella xylostella [9] was 0% throughout.

With `CCc1nn(C)c(C(=O)NCc2ccc(C(=O)c3ccc(C)cc3)cc2)c1Cl`, the mortality at 12.5 ppm with Plutella xylostella [6] and in the data set with Myzus persicae [3] was 100% each time. The mortality at 50 ppm with Plutella xylostella [7] and with Myzus persicae [4] was 100% each time. For the same compound, the mortality at 0.78 ppm in the data set on Myzus persicae [1] was determined as 30%; in the data set on Plutella xylostella [8] it was 0%. The mortality at 3.13 ppm in the data set with Myzus persicae [2] and in the data set on Plutella xylostella [9] was 0% each time.

With `CCCc1nn(C)c(C(=O)NCc2ccc(Oc3ccc(C)cc3)cc2)c1Cl`, the mortality at 0.78 ppm with Myzus persicae [1] came out at 0%. The mortality at 3.13 ppm in the data set on Myzus persicae [2] came to 0%. The mortality at 12.5 ppm with Myzus persicae [3] amounted to 0%. Also, the mortality at 50 ppm in the data set on Myzus persicae [4] came to 80%.

As to `CCc1nn(C)c(C(=O)NCc2ccc(Oc3ccc(C)cc3)cc2)c1Cl` [TOLFENPYRAD], the mortality at 12.5 ppm with Plutella xylostella [6] and in the data set with Myzus persicae [3] was 100% throughout. The mortality at 50 ppm with Plutella xylostella [7] and in the data set on Myzus persicae [4] was 100% each time. In addition, the mortality at 0.78 ppm in the data set on Myzus persicae [1] came to 30%; with Plutella xylostella [8] it was 0%. In addition, the mortality at 3.13 ppm in the data set on Myzus persicae [2] came to 100%; in the data set with Plutella xylostella [9], 30%. Besides, the 50% lethal dose (LD50) in [5] was greater than 100 mg/kg.

For the origin of these results see ChEMBL document CHEMBL3044832, “Synthesis and Insecticidal Activity of N-(Tolyloxybenzyl)-pyrazolecarboxamide Derivatives” (J Pestic Sci, 1999).
